Assay results reported in PubChem BioAssay (NCI).
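Compound exposure: 48 hours, 5 concentrations, 96-well plates. The concentration for 50% growth inhibition is given as GI50. TGI: concentration producing complete growth inhibition.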

Assays:
Assay in all cases: NCI-60 cell line screen, 48 h; in the data active = GI50 below about 0.43 µM; inactive = the rest
786-0 renal = system: 786-0 renal
EKVX NSCLC = system: EKVX NSCLC
UACC-62 melanoma = system: UACC-62 melanoma
RXF 393 renal = system: RXF 393 renal
DLD-1 colon = system: DLD-1 colon
UACC-257 melanoma = system: UACC-257 melanoma
XF 498 CNS = system: XF 498 CNS
CCRF-CEM leukemia = system: CCRF-CEM leukemia
SN12C renal = system: SN12C renal
SK-MEL-28 melanoma = system: SK-MEL-28 melanoma
SF-539 CNS = system: SF-539 CNS
ACHN renal = system: ACHN renal
IGROV1 ovarian = system: IGROV1 ovarian
CAKI-1 renal = system: CAKI-1 renal
A549 NSCLC = system: A549 NSCLC
SW-620 colon = system: SW-620 colon
OVCAR-4 ovarian = system: OVCAR-4 ovarian
HL-60(TB) leukemia = system: HL-60(TB) leukemia
M14 melanoma = system: M14 melanoma
U251 CNS = system: U251 CNS
SNB-75 CNS = system: SNB-75 CNS
DMS 273 small cell lung = system: DMS 273 small cell lung
SF-295 CNS = system: SF-295 CNS
HOP-62 NSCLC = system: HOP-62 NSCLC
DMS 114 small cell lung = system: DMS 114 small cell lung
SK-OV-3 ovarian = system: SK-OV-3 ovarian
COLO 205 colon = system: COLO 205 colon
SNB-78 CNS = system: SNB-78 CNS
OVCAR-5 ovarian = system: OVCAR-5 ovarian
KM12 colon = system: KM12 colon
OVCAR-8 ovarian = system: OVCAR-8 ovarian
KM20L2 colon = system: KM20L2 colon
A498 renal = system: A498 renal
RPMI-8226 leukemia = system: RPMI-8226 leukemia
HCC-2998 colon = system: HCC-2998 colon
TK-10 renal = system: TK-10 renal
UO-31 renal = system: UO-31 renal
K-562 leukemia = system: K-562 leukemia
HOP-18 NSCLC = system: HOP-18 NSCLC
SF-268 CNS = system: SF-268 CNS
LOX IMVI melanoma = system: LOX IMVI melanoma
SK-MEL-5 melanoma = system: SK-MEL-5 melanoma
MALME-3M melanoma = system: MALME-3M melanoma
SNB-19 CNS = system: SNB-19 CNS
NCI-H23 lung = system: NCI-H23 lung
HCT-15 colon = system: HCT-15 colon
LXFL 529 NSCLC = system: LXFL 529 NSCLC
SK-MEL-2 melanoma = system: SK-MEL-2 melanoma
HOP-92 NSCLC = system: HOP-92 NSCLC
NCI-H226 lung = system: NCI-H226 lung
MOLT-4 leukemia = system: MOLT-4 leukemia
OVCAR-3 ovarian = system: OVCAR-3 ovarian

O=C1OC(c2cccc(C(F)(F)F)c2)(c2cccc(C(F)(F)F)c2)c2ccc3ccccc3c21
inactive: GI50 (786-0 renal) > 100 µM | GI50 (EKVX NSCLC) > 100 µM | GI50 (UACC-62 melanoma) > 100 µM | GI50 (DLD-1 colon) > 100 µM | GI50 (CCRF-CEM leukemia) 9.13 µM | GI50 (SN12C renal) > 100 µM | GI50 (SK-MEL-28 melanoma) > 100 µM | GI50 (IGROV1 ovarian) > 100 µM | GI50 (A549 NSCLC) > 100 µM | GI50 (SW-620 colon) > 100 µM | GI50 (OVCAR-4 ovarian) > 100 µM | GI50 (M14 melanoma) > 100 µM | GI50 (SNB-75 CNS) > 100 µM | GI50 (DMS 273 small cell lung) > 100 µM | GI50 (HOP-62 NSCLC) > 100 µM | GI50 (DMS 114 small cell lung) 4.44 µM | GI50 (SK-OV-3 ovarian) > 100 µM | GI50 (COLO 205 colon) > 100 µM | GI50 (SNB-78 CNS) > 100 µM | GI50 (OVCAR-5 ovarian) > 100 µM | GI50 (OVCAR-8 ovarian) > 100 µM | GI50 (A498 renal) > 100 µM | GI50 (RPMI-8226 leukemia) 7.56 µM | GI50 (HCC-2998 colon) > 100 µM | GI50 (TK-10 renal) > 100 µM | GI50 (UO-31 renal) > 100 µM | GI50 (K-562 leukemia) 4.29 µM | GI50 (HOP-18 NSCLC) > 100 µM | GI50 (LOX IMVI melanoma) > 100 µM | GI50 (SK-MEL-5 melanoma) 5.26 µM | GI50 (MALME-3M melanoma) > 100 µM | GI50 (NCI-H23 lung) 3.92 µM | GI50 (LXFL 529 NSCLC) 7.26 µM | GI50 (SK-MEL-2 melanoma) > 100 µM | GI50 (MOLT-4 leukemia) 7.21 µM | GI50 (OVCAR-3 ovarian) 22.4 µM
> 100 µM: TGI (786-0 renal) | TGI (EKVX NSCLC) | TGI (UACC-62 melanoma) | TGI (RXF 393 renal) | TGI (DLD-1 colon) | TGI (UACC-257 melanoma) | TGI (XF 498 CNS) | TGI (CCRF-CEM leukemia) | TGI (SN12C renal) | TGI (SK-MEL-28 melanoma) | TGI (SF-539 CNS) | TGI (ACHN renal) | TGI (IGROV1 ovarian) | TGI (CAKI-1 renal) | TGI (A549 NSCLC) | TGI (SW-620 colon) | TGI (OVCAR-4 ovarian) | TGI (HL-60(TB) leukemia) | TGI (M14 melanoma) | TGI (U251 CNS) | TGI (SNB-75 CNS) | TGI (DMS 273 small cell lung) | TGI (SF-295 CNS) | TGI (HOP-62 NSCLC) | TGI (DMS 114 small cell lung) | TGI (SK-OV-3 ovarian) | TGI (COLO 205 colon) | TGI (SNB-78 CNS) | TGI (OVCAR-5 ovarian) | TGI (KM12 colon) | TGI (OVCAR-8 ovarian) | TGI (KM20L2 colon) | TGI (A498 renal) | TGI (RPMI-8226 leukemia) | TGI (HCC-2998 colon) | TGI (TK-10 renal) | TGI (UO-31 renal) | TGI (K-562 leukemia) | TGI (HOP-18 NSCLC) | TGI (SF-268 CNS) | TGI (LOX IMVI melanoma) | TGI (SK-MEL-5 melanoma) | TGI (MALME-3M melanoma) | TGI (SNB-19 CNS) | TGI (NCI-H23 lung) | TGI (HCT-15 colon) | TGI (LXFL 529 NSCLC) | TGI (SK-MEL-2 melanoma) | TGI (HOP-92 NSCLC) | TGI (NCI-H226 lung) | TGI (MOLT-4 leukemia) | TGI (OVCAR-3 ovarian)
